Patent US20020114786A1, “Pharmaceutical preparations comprising soybean isoflavone extracts and probiotic microogranisms” (priority 2000, published 2002)
Where two headings read alike, the source gives them in different places.

What was measured:
[1] = selecting isoflavone-metabolizing microorganisms; details: microbial culture with soybean extract
Method: At each of these times, a sample is removed from the microbial cultures, diluted with an equal volume of methanol and then filtered. In each case, the methanolic solution is analyzed by high performance liquid chromatography. High performance liquid chromatography is used to assay daidzine, genistine, daidzein and genistein in the initial extract and in the media metabolized by the different microorganisms. In this way, the contents of the aglycone and glycosylated forms in the metabolized extract are calculated with respect to the glycosylated forms (100%) in the initial extract.

bone = details: cited from earlier work
Lactobacillus plantarum = assay: metabolism of soybean extract isoflavones in microbial culture, HPLC assay; format: in vitro ADME
Method: (§1) At each of these times, a sample is removed from the microbial cultures, diluted with an equal volume of methanol and then filtered. In each case, the methanolic solution is analyzed by high performance liquid chromatography. […] In this way, the contents of the aglycone and glycosylated forms in the metabolized extract are calculated with respect to the glycosylated forms (100%) in the initial extract.

Pediococcus acidilactici = assay: as above; format: in vitro ADME
Method: as §1

[2] = tested on: Lactobacillus acidophilus; assay: as above; format: in vitro ADME
Method: as §1

[3] = tested on: Propionibacterium acidipropionici; assay: as above; format: in vitro ADME
Method: as §1

Lactobacillus brevis = assay: as above; format: in vitro ADME
Method: as §1

Enterococcus faecium = assay: as above; format: in vitro ADME
Method: as §1

[4] = tested on: Streptococcus thermophilus; assay: as above; format: in vitro ADME
Method: as §1

Lactobacillus rhamnosus = assay: as above; format: in vitro ADME
Method: as §1

Lactobacillus casei = assay: as above; format: in vitro ADME
Method: as §1

type II (β) receptors = details: activity of estradiol set at 100; cited from earlier work
osteoclastic activity = details: cited from earlier work

Lactobacillus acidophilus
ranking of strains by isoflavone-metabolizing activity [1]: the most active strains

CC(C)Oc1ccc2c(=O)c(-c3ccccc3)coc2c1 [ipriflavone]
bone gain (bone; 500 to 600 mg per day, 40 menopausal women suffering from osteoporosis): bone gain at the level of L1-L5, with a return to normal in 12 months | bone losses (bone; women being treated with LHRH agonists): possible to avoid bone losses

O=c1c(-c2ccc(O)cc2)coc2cc(O)cc(O)c12 [Genistein, genistein]
content in the metabolized extract with respect to the glycosylated forms (100%) in the initial extract (Lactobacillus plantarum; Lactobacillus plantarum culture, time not given): 44% | content in the metabolized extract with respect to the glycosylated forms (100%) in the initial extract (Pediococcus acidilactici; Pediococcus acidilactici culture, time not given): 30% | content in the metabolized extract with respect to the glycosylated forms (100%) in the initial extract ([2]; Lactobacillus acidophilus culture, time not given): 83% | content in the metabolized extract with respect to the glycosylated forms (100%) in the initial extract ([3]; Propionibacterium acidipropionici culture, time not given): 72% | content in the metabolized extract with respect to the glycosylated forms (100%) in the initial extract (Lactobacillus brevis; Lactobacillus brevis culture, time not given): 81% | content in the metabolized extract with respect to the glycosylated forms (100%) in the initial extract (Enterococcus faecium; Enterococcus faecium culture, cultured 24, 48 and 72 hours, time not given): 80% | content in the metabolized extract with respect to the glycosylated forms (100%) in the initial extract ([4]; Streptococcus thermophilus culture, time not given): 25% | content in the metabolized extract with respect to the glycosylated forms (100%) in the initial extract (Lactobacillus rhamnosus; Lactobacillus rhamnosus culture, time not given): 85% | content in the metabolized extract with respect to the glycosylated forms (100%) in the initial extract (Lactobacillus casei; Lactobacillus casei culture, time not given): 13% | estrogenic activity (type II (β) receptors): 0.084 | osteoclastic activity (osteoclastic activity): inhibits osteoclastic activity

Oc1ccc([C@H]2COc3cc(O)ccc3C2)cc1 [equol, reference compound]
estrogenic activity (type II (β) receptors): 0.61

O=c1c(-c2ccc(O)cc2)coc2cc(O[C@@H]3O[C@H](CO)[C@@H](O)[C@H](O)[C@H]3O)cc(O)c12 [Genistine, genistine]
content in the metabolized extract with respect to the glycosylated forms (100%) in the initial extract (Lactobacillus plantarum; Lactobacillus plantarum): 53% | content in the metabolized extract with respect to the glycosylated forms (100%) in the initial extract (Pediococcus acidilactici; Pediococcus acidilactici): 63% | content in the metabolized extract with respect to the glycosylated forms (100%) in the initial extract ([2]; Lactobacillus acidophilus): 6.5% | content in the metabolized extract with respect to the glycosylated forms (100%) in the initial extract ([3]; Propionibacterium acidipropionici): 12% | content in the metabolized extract with respect to the glycosylated forms (100%) in the initial extract (Lactobacillus brevis; Lactobacillus brevis): 2% | content in the metabolized extract with respect to the glycosylated forms (100%) in the initial extract (Enterococcus faecium; Enterococcus faecium, 72 h): 5.5% | content in the metabolized extract with respect to the glycosylated forms (100%) in the initial extract ([4]; Streptococcus thermophilus): 73% | content in the metabolized extract with respect to the glycosylated forms (100%) in the initial extract (Lactobacillus rhamnosus; Lactobacillus rhamnosus): 5% | content in the metabolized extract with respect to the glycosylated forms (100%) in the initial extract (Lactobacillus casei; Lactobacillus casei): 85%

estradiol [reference compound]
estrogenic activity (type II (β) receptors): 100

O=c1c(-c2ccc(O)cc2)coc2cc(O)ccc12 [Daidzein, daidzein]
estrogenic activity (type II (β) receptors): 0.013

O=c1c(-c2ccc(O)cc2)coc2cc(O[C@@H]3O[C@H](CO)[C@@H](O)[C@H](O)[C@H]3O)ccc12 [Daidzine, daidzine]
content in the metabolized extract with respect to the glycosylated forms (100%) in the initial extract (Lactobacillus plantarum): 75% | content in the metabolized extract with respect to the glycosylated forms (100%) in the initial extract (Pediococcus acidilactici): 77% | content in the metabolized extract with respect to the glycosylated forms (100%) in the initial extract [2]: 16% | content in the metabolized extract with respect to the glycosylated forms (100%) in the initial extract [3]: 33% | content in the metabolized extract with respect to the glycosylated forms (100%) in the initial extract (Lactobacillus brevis): 16% | content in the metabolized extract with respect to the glycosylated forms (100%) in the initial extract (Enterococcus faecium; 72 h): 0.1% | content in the metabolized extract with respect to the glycosylated forms (100%) in the initial extract [4]: 65% | content in the metabolized extract with respect to the glycosylated forms (100%) in the initial extract (Lactobacillus rhamnosus): 26% | content in the metabolized extract with respect to the glycosylated forms (100%) in the initial extract (Lactobacillus casei): 80%
